We go through two molecules from patent US8771680B2, “Topical co-enzyme Q10 formulations and methods of use” (University of Miami, priority 2004, dated 2014).

Structures are written as SMILES.

The conditions of data set [1]: of cancer patients having progressive disease before treatment; cited from earlier work.
For data set [2], the system named is human melanoma cell line (SKMEL28). As to the kind of experiment: Proliferation of melanoma cell line in in vitro culture (cell counting). Format: cell-based. Here is the method: (§1) Retrieve Q10 stock from −20° C. storage and weigh out approximately 4.4 mg. Transfer Q10 into a 25 mL centrifuge tube. Add 1 mL 2-propanol to centrifuge tube. Vortex and dip in hot water bath (55° C.) to promote dissolution. Add 9 mL of media to centrifuge tube. Vortex and dip in hot water bath (55° C.) if necessary to create a homogenous solution. […] Make serial dilutions to treatment concentrations.
(§2) After subculture (per subculturing cells protocol described above), pipet the desired volume suspension of cells to count (0.25-1 mL) into Coulter Counter Vial (Beckman, Inc.) using an automatic pipette. Insure that the Beckman Coulter® Z1 Cell and Particle Counter is clean by using Coulter CLENZ (Beckman, Inc., Fullerton, Calif.) to flush. Flush apparatus once with Isoton II Diluent. Add Isoton II Diluent to vial containing cells for a total volume of 10 mL. Use output mode of apparatus to count cells twice to ensure accuracy. Average counts together and calculate total cell number per volume.
(§3) Acclimate reagents to 37° C. in water bath. Make stock solution of Q10 as per protocol described above for creating a homogenous solution of Q10 in media. Perform serial dilutions to desired concentrations. Place 2 mL media into respective wells. Subculture flasks as per protocol described above for subculturing cells. […]

For the next data set, the system named is squamous carcinoma cells. As to the kind of experiment: Proliferation of squamous carcinoma cells in in vitro culture. Format: cell-based. The settings on record: 48 hour in vitro culture. Here is the method:
as §1, §2, §3

The test system of data set [3] is human neonatal fibroblasts. The data set is described as follows: Proliferation of neonatal fibroblasts in in vitro culture. The settings on record: 48 hour in vitro culture. Format: cell-based. Here is the method: as §1, §2, §3
For data set [4], the system named is human neonatal keratinocytes. As to the kind of experiment: Proliferation of neonatal keratinocytes in in vitro culture. Format: cell-based. The settings on record: 48 hour in vitro culture. The procedure:
as §1, §2, §3

For data set [5], the system named is breast adenocarcinoma cell line (MCF-7). As to the kind of experiment: Proliferation of breast adenocarcinoma cell line MCF-7 in in vitro culture. Format: cell-based. The procedure:
as §1, §2, §3

For data set [6], the system named is human breast adenocarcinoma cell line (SK-BR-3). As to the kind of experiment: Proliferation of breast adenocarcinoma cell line SK-BR-3 in in vitro culture. The class given is cell-based. The procedure:
as §1, §2, §3

Data set [7] relates to human breast adenocarcinoma cell line (MDA-MB-468). As to the kind of experiment: Proliferation of breast adenocarcinoma cell line MDA-MB-468 in in vitro culture. Format: cell-based. Here is the method: as §1, §2, §3
In data set [8] the test system is human breast adenocarcinoma cell line (BT-20). The data set is described as follows: Proliferation of breast adenocarcinoma cell line BT-20 in in vitro culture. Format: cell-based. The procedure: as §1, §2, §3
The test system of data set [9] is human hepatocellular carcinoma cell line (Hep 3B). The data set is described as follows: Proliferation of hepatocellular carcinoma cell line Hep 3B in in vitro culture. The class given is cell-based. Here is the method: as §1, §2, §3
Data set [10] deals with human osteosarcoma cell line (143B). The data set is described as follows: Proliferation of osteosarcoma cell line 143B in in vitro culture. Format: cell-based. Here is the method:
as §1, §2, §3

In data set [11] the test system is human prostatic adenocarcinoma cell line (PC-3). As to the kind of experiment: Proliferation of prostatic adenocarcinoma cell line PC-3 in in vitro culture. The class given is cell-based. Here is the method: as §1, §2, §3
The test system is the same in data set [12]. As to the kind of experiment: Apoptosis analysis by JC-1 stain (mitochondrial polarization, flow cytometry). The class given is cell-based. The following applies: PC-3 cells, 0.2 mM Q10, 24 h. The procedure:
FIG. 28 is a graph showing the effect of CoQ10 on mitochondrial polarization (an indicator of apoptosis) of a human prostatic adenocarcinoma cell line (PC-3) in a 24 hour in vitro culture. PC-3 cell cultures were treated with Q10 at 0.05, 0.1 and 0.2 mM concentrations for 24 h and then treated with JC-1, at 10 microgram/ml., for 30 min. Uptake and levels of green fluorescence was measured in a flow cytometer, FL1 (green fluor.).
Apoptosis was measured using a mitochondrial membrane dye JC-1, 5,5′,6,6′-tetrachloro-1,1′,3,3′-tetraethyl-benzimidazolylcarbocyanine chloride (Molecular Probe, Eugene, Oreg.). Treatments consisting of DMEM-F12 media supplemented with 1×PSA, 5% FBS and 0, 50, 100, and 200 μM concentrations of coenzyme Q10 were prepared in 60×15 mm tissue culture dishes (Costar-Cambride, Mass.). PC-3 cells were seeded at 500,000 cells per dish and incubated for 24 hours. The cells were trypsinized using 2 mL trypsin-EDTA and subjected to centrifugation at 2,500 rpm for 8 minutes. They were resuspended in 1 mL of Ham's F12 medium lacking serum and phenol red (Cascade Biologics, Inc-Portland, Oreg.) and promptly placed on ice. A 1 mg/ml stock solution of JC-1 was prepared using sterile DMSO and 10 μL was added to each cell suspension while gently vortexing. […] The samples were analyzed by flow cytometry for changes in uptake of fluorescent dye. […]
Background: In flow cytometry, cells or beads pass a laser one at a time.

For a further data set, the system named is SK-MEL28 tumors. As to the kind of experiment: Effect of topical formulation of Coenzyme Q10 on SK-MEL28 tumors in mice. Format: in vivo. The procedure:
Subculture flasks as per the cell subculturing protocol described above. After aspirating supernatant, combine pellets from each flask diluted slightly with PBS with a 5 mL pipette. Dilute final cell suspension to contain approximately ten million cells per 100 μL. Transfer cell suspension to micro-centrifuge tubes (2 mL). Place in ice immediately and leave in ice until injected. Anesthetize mice via an intraperitoneal injection with 0.3 cc Aventin. Inoculate each animal subcutaneously with 0.1 cc cell suspension per site. Transfer any remaining cells into a 15 mL centrifuge tube. Dilute to 10 mL with medium. Centrifuge at 2500 RPM for 8 minutes. Aspirate supernatant. Add 10 mL media to centrifuge tube. Create a homogenous cell suspension by pipetting and vortexing. Seed cells in a T75 flask to ensure experimental cell viability.
Melanoma tumors were induced in mice by SK-MEL28 injection into the subcutaneous layer. The animal study consisted of both a control and treatment group each containing four mice. The mice were inoculated with two tumors and the graph of FIG. 14 represents the resulting mean mass for the tumors in each mouse. A topical formulation of Coenzyme Q10 (A 1.0% and 1.5% formulation was tested) was applied to the tumors in the treatment group daily for a period of 30 days. After which, the tumors were excised and the mass was determined. […]

The subject of data set [13] is skin cancer cells (SK-Mel28). As to the kind of experiment: Apoptosis assay (Annexin-VPE) in skin cancer cells. The class given is cell-based, human. The following applies: culture of skin cancer cells. The procedure: (§4) Cell lines used in the assay were SK-Mel28 and nFIB. Cells (SK-Mel28 and nFIB) were seeded (5×10^4 cells/well) into wells containing either solely medium or medium with treatment and placed in an incubator at 37° C., 5% CO2, and under humidified conditions for 48 hours. Each condition was performed in duplicate and was subjected to the following protocol:
(§5) Apoptosis Analysis as Per Protocol of BD Pharmingen Annexin-VPE Protocol
(§6) Reagents include Annexin V-PE (BD Pharmingen, San Diego, Calif.), 7-AAD (BD Pharmingen, San Diego, Calif.), binding buffer (10×: 0.1 M Hepes/NaOH, 1.4 M NaCl, 25 mM CaCl2) [diluted to 1× (9 mL PBS and 1 mL binding buffer) for use in experiment] (BD Pharmingen, San Diego, Calif.), Trypsin-EDTA (Gibco, Grand Island, N.Y.), and desired Media.
(§7) Add 0.5 mL trypsin to each well, remove trypsin after approximately 10 seconds, and add 0.5 mL trypsin to each well. Place wells in an incubator, observe level of detachment under microscope after 4 minutes, and gently tap sides and bottom to aid in detachment. When cells detach, neutralize with 0.5 mL serum-supplemented medium. Transfer cell solution to centrifuge tubes, centrifuge cells at 2000 RPM for 5 minutes, aspirate supernatant, resuspend in 6 mL PBS, and split 6 mL into three centrifuge tubes (2 mL each). […]

The test system of a further data set is normal cells (nFIB). As to the kind of experiment: Apoptosis assay (Annexin-VPE) in normal cells. Format: cell-based, human. The settings on record: culture of normal cells. Here is the method:
as §4, §5, §6, §7

With `NC(=O)c1nnn(Cc2cc(Cl)c(C(=O)c3ccc(Cl)cc3)c(Cl)c2)c1N` [CAI, carboxyamidotriazole], the disease stabilization in data set [1] is given as 49%.
In the case of `COC1=C(OC)C(=O)C(C/C=C(\C)CC/C=C(\C)CC/C=C(\C)CC/C=C(\C)CC/C=C(\C)CC/C=C(\C)CC/C=C(\C)CC/C=C(\C)CC/C=C(\C)CCC=C(C)C)=C(C)C1=O` [CoQ10, Coenzyme Q10], the proliferation entry is reported as “reduces the proliferation” in [2] (SKMEL28, 36 hour in vitro culture); “reduces the proliferation” in [2] (SKMEL28, 48 hour in vitro culture); “reduces the proliferation” in the data set with squamous carcinoma cells; “increases the proliferation” in data set [3]; “increases the proliferation” in data set [4]; “reduces the proliferation” in data set [5] (MCF-7, 48 hour in vitro culture). Also, the proliferation result in data set [5] (MCF-7, 72 hour in vitro culture) is listed as “reduces the proliferation”; in data set [6] (SK-BR-3, 48 hour in vitro culture), “reduces the proliferation”; in data set [6] (SK-BR-3, 72 hour in vitro culture) it was “reduces the proliferation”; in data set [7] (MDA-MB-468, 48 hour in vitro culture), “reduces the proliferation”; in data set [7] (MDA-MB-468, 72 hour in vitro culture), “reduces the proliferation”; in data set [8] (BT-20, 48 hour in vitro culture) it was “reduces the proliferation”. For the same molecule, the proliferation result in [8] (BT-20, 72 hour in vitro culture) was “reduces the proliferation”; in data set [9] (48 hour in vitro culture) it was “reduces the proliferation”; in data set [9] (72 hour in vitro culture) it was “reduces the proliferation”; in data set [10] (48 hour in vitro culture) it was “reduces the proliferation”; in data set [10] (72 hour in vitro culture), “reduces the proliferation”; in [11] (PC-3, 48 hour in vitro culture), “reduces the proliferation”. The proliferation entry in data set [11] (PC-3, 72 hour in vitro culture) is “reduces the proliferation”. Moreover, in [12], the “green fluorescence of JC-1 (mitochondrial polarization, an indicator of apoptosis)” value is on record as “significant increase”. The “Average tumor mass decreased as compared to the control” value in the data set on SK-MEL28 tumors (1.0% CoQ10 topically for 30 days) is 52.3%; in the data set with SK-MEL28 tumors (1.5% CoQ10 topically for 30 days) it was 54.0%. In addition, the rate of apoptosis entry in data set [13] is on record as “increase the rate of apoptosis”; in the data set on normal cells (nFIB), “but not normal cells”.
